Earlier results in patent publication US9326976B2, “Carbamate derivatives” (CHIESI FARMACEUTICI S.P.A., priority 2014, dated 2016).

System: COPD patients
[1] = patients with severe disease, frequent exacerbations and mucus hypersecretion

## O=C(Nc1c(Cl)cncc1Cl)c1ccc(OC(F)F)c(OCC2CC2)c1 [roflumilast]
COPD patients, oral, given over 4 weeks
  reduction of the numbers of neutrophils in sputum: 36%
[1]
  improvement of FEV 1: approximately 50 mL
  reduction of exacerbation: about 15%
